Where two headings read alike, the source gives them in different places. Where a SMILES comes first, the peptide text is derived from it. Where no end group is shown, it is not given here. [ ]: non-standard residue; d: D form. The star is where a group is joined. Biotin = O=C1N[C@H]2[C@H](CS[C@H]2CCCCC(=O)*)N1; pY = N[C@@H](Cc1ccc(OP(=O)(O)O)cc1)C(=O)O
Assays:
[1] = target: T1, GADS SH2 (Homo sapiens, UniProt O75791); assay: SPR equilibrium binding of recombinant GADS SH2 domain to immobilized phosphopeptides; settings: 37°C
T1 construct: Recombinant His-tagged SH2 domains of GADS, GRB2, and TSAd in the popinF vector; His tag; made in house; host or cells: Escherichia coli Rosetta(DE3)/pLysS
T1 sequence (O75791 58-149 limits assumed): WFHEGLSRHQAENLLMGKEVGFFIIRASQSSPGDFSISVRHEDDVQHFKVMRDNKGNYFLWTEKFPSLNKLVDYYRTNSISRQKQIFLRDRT
Description: (§1) We measured the direct binding of purified monomeric SH2 domains to the phosphorylated CD6 Y629 peptide at physiological temperature using surface plasmon resonance (SPR) (Fig. 1). The sensorgram traces for all three proteins binding to phosphorylated CD6 Y629 are consistent with monomeric binding of all three proteins (Fig. 1, right). Equilibrium binding data were plotted to determine dissociation constants (KDs) (Fig. 1, left). GADS and GRB2 bound with similar KDs to phosphorylated Y629, at 1 to 3 μM and 2 to 4 μM, respectively (Fig. 1A and B and Table 2). As an indication that the recombinant proteins were active, the SH2 domains of GADS and GRB2 bound to a phosphorylated CD28-derived peptide containing the YXN motif with an affinity (KD = 2 to 3 μM) similar to that determined by previous measurements (Fig. 1 and Table 2) ([14]).
(§2) Recombinant His-tagged SH2 domains of GADS, GRB2, and TSAd in the popinF vector (provided by Louis Bird, Oxford Protein Production Facility, Harwell, Oxfordshire, UK) and SLP-76 ([1]) were expressed in Escherichia coli Rosetta(DE3)/pLysS competent cells (Novagen) and purified by nickel affinity chromatography and size exclusion chromatography. Peptides for CD6 pY662 (biotin-[…]pYDDISAA), CD6 Y629 (biotin-[…]), CD6 pY629 (biotin-SSGEWpYQNFQP), and CD28 pYMNM (biotin-LLHSDpYMNMTP) were immobilized at ∼25 response units on streptavidin-coated CM5 chips in a BIAcore 3000 machine (Peptide Protein Research Ltd., Hampshire, UK) ([1], [14]). Long CD6 peptides (biotin-[…]pYDDISAA) phosphorylated at Y629 (pY629), Y662 (pY662), or both (pY629 pY662) were immobilized at ∼50 response units. Serially diluted proteins were injected over the chip at 10 μl/min at 37°C. Background signals of proteins over a streptavidin-coated flow cell were subtracted, equilibrium binding data were plotted, and KDs for 1:1 Langmuir binding were determined.

[2] = target: T2, SLP-76 SH2 (Homo sapiens, UniProt Q13094); assay: SPR equilibrium binding of recombinant SLP-76 SH2 domain to immobilized long CD6 peptides; settings: 37°C; for Kd: equilibrium binding of soluble recombinant SH2 domain to immobilized long CD6 peptides (~50 RU), range, n = 3
T2 construct: 2-fold serial dilutions of GADS (10 μM) (A) and SLP-76 (20 μM) (B) SH2 domains over the long CD6 peptides; His tag; made in house; host or cells: Escherichia coli Rosetta(DE3)/pLysS
T2 sequence (Q13094 422-530 limits assumed): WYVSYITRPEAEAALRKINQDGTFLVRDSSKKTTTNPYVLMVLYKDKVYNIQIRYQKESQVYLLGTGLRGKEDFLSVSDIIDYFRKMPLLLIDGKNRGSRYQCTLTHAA
Description: SPR analysis with long peptides containing both Y629 and Y662 phosphorylated at either or both tyrosine residues confirmed the specificity of the SH2 domains of GADS and SLP-76 for the CD6 Y629 and Y662 motifs, respectively (Fig. 3 and Table 3). […] Coprecipitation of GADS with CD6 was not observed in Jurkat (J14) cells, which lack SLP-76 (data not shown). GADS and SLP-76 interact with each other independently of their SH2 domains. A GADS SH3 domain binds to a proline-rich region of SLP-76 ([15]). This configuration means that both SH2 domains are available for bivalent binding to two phosphorylated tyrosine residues in close proximity. CD6 Y629 is the closest tyrosine residue to CD6 Y662 in the linear amino acid sequence of the cytoplasmic region.
as §2

[3] = target: T3, GRB2 SH2 (Homo sapiens, UniProt P62993); assay: SPR equilibrium binding of recombinant GRB2 SH2 domain to immobilized phosphopeptides; settings: 37°C
T3 construct: Recombinant His-tagged SH2 domains of GADS, GRB2, and TSAd in the popinF vector; His tag; made in house; host or cells: Escherichia coli Rosetta(DE3)/pLysS
T3 sequence (P62993 60-152 limits assumed): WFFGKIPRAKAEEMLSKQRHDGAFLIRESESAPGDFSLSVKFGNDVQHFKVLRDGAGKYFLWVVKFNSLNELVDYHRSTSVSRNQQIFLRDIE
Description: as §1, §2

[4] = target: T4, TSAd SH2 (Homo sapiens, UniProt Q9NP31); assay: SPR equilibrium binding of recombinant TSAd SH2 domain to immobilized phosphopeptides; settings: equilibrium binding of soluble recombinant SH2 domain to immobilized biotinylated peptide, 37°C, 1:1 Langmuir, range, n = 3 (CD28 pYMN: n = 1)
T4 construct: Recombinant His-tagged SH2 domains of GADS, GRB2, and TSAd in the popinF vector; His tag; made in house; host or cells: Escherichia coli Rosetta(DE3)/pLysS
T4 sequence (Q9NP31 95-186 limits assumed): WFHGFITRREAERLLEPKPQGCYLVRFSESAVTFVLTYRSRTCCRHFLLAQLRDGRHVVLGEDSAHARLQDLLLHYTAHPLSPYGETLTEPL
Description: as §1
Recombinant His-tagged SH2 domains of GADS, GRB2, and TSAd in the popinF vector (provided by Louis Bird, Oxford Protein Production Facility, Harwell, Oxfordshire, UK) and SLP-76 ([1]) were expressed in Escherichia coli Rosetta(DE3)/pLysS competent cells (Novagen) and purified by nickel affinity chromatography and size exclusion chromatography. […] Background signals of proteins over a streptavidin-coated flow cell were subtracted, equilibrium binding data were plotted, and KDs for 1:1 Langmuir binding were determined.

[5] = equilibrium binding of soluble recombinant SH2 domain to immobilized long CD6 peptides (~50 RU), range, n = 3, read-out: KD (μM) (range) GADS SH2
[6] = equilibrium binding of soluble recombinant SH2 domain to immobilized biotinylated peptide (~25 RU on streptavidin-coated CM5 chip), 1:1 Langmuir, range, n = 3, read-out: KD (μM) GADS SH2
[7] = fitted equilibrium curve of the experiment shown, 2-fold serial dilutions of GADS SH2 from 35 μM over immobilized peptide, streptavidin background subtracted, read-out: KD, GADS SH2 (Fig. 1A)
[8] = equilibrium binding of soluble recombinant SH2 domain to immobilized biotinylated peptide (~25 RU on streptavidin-coated CM5 chip), 1:1 Langmuir, range, n = 3, read-out: KD (μM) GRB2 SH2

Compound	Kd [1, 5]	Kd [2]	Kd [1, 6]	Kd [1, 7]	Kd [3, 8]	other results
Biotin-STSSGEWYQNFQPPPQPPSEEQFGCPGSPSPQPDSTDNDD[pY]DDISAA [pY662]	–	0.3 to 2 µM	–	–	–	–
NC(=O)CC[C@H](NC(=O)[C@H](Cc1ccc(OP(=O)(O)O)cc1)NC(=O)[C@H](Cc1c[nH]c2ccccc12)NC(=O)[C@H](CCC(=O)O)NC(=O)CNC(=O)[C@H](CO)NC(=O)[C@H](CO)NC(=O)CCCC[C@@H]1SC[C@@H]2NC(=O)N[C@@H]21)C(=O)N[C@@H](CC(N)=O)C(=O)N[C@@H](Cc1ccccc1)C(=O)N[C@@H](CCC(N)=O)C(=O)N1CCC[C@H]1C(=O)O [CD6 pY629] (Biotin-SSGEW[pY]QNFQP-OH)	–	–	1 to 3 µM	1 µM	2 to 4 µM	Kd ([3]; fitted equilibrium curve of the experiment shown, 2-fold serial dilutions of GRB2 SH2 from 106 μM over immobilized peptide, streptavidin background subtracted, read-out: KD, GRB2 SH2 (Fig. 1B)): 2 µM; Kd [4]: 26 to 58 µM
CSCC[C@H](NC(=O)[C@H](Cc1ccc(OP(=O)(O)O)cc1)NC(=O)[C@H](CC(=O)O)NC(=O)[C@H](CO)NC(=O)[C@H](Cc1c[nH]cn1)NC(=O)[C@H](CC(C)C)NC(=O)[C@H](CC(C)C)NC(=O)CCCC[C@@H]1SC[C@@H]2NC(=O)N[C@@H]21)C(=O)N[C@@H](CC(N)=O)C(=O)N[C@@H](CCSC)C(=O)N[C@H](C(=O)N1CCC[C@H]1C(=O)O)[C@@H](C)O [CD28 pYMN, reference compound] (Biotin-LLHSD[pY]MNMTP-OH)	–	–	2 to 3 µM	2 µM	2 to 3 µM	–

The next lines start with results.

Kd [1, 5]	Kd [2]	Kd [1, 6]	Kd [1, 7]	Kd [3, 8]	Compound	other results
0.1 to 2 µM	0.3 to 2 µM	–	–	–	Biotin-STSSGEW[pY]QNFQPPPQPPSEEQFGCPGSPSPQPDSTDNDD[pY]DDISAA [pY629 pY662]	–
0.2 to 0.6 µM	–	–	–	–	Biotin-STSSGEW[pY]QNFQPPPQPPSEEQFGCPGSPSPQPDSTDNDDYDDISAA [pY629]	binding of the SLP-76 SH2 domain ([2]; long CD6 peptides, data not shown): no binding

Reference: publication PMC5440646, “T Cell Costimulation by CD6 Is Dependent on Bivalent Binding of a GADS/SLP-76 Complex” (Molecular and Cellular Biology, 2017)
